Results as given in PMC6813460, “Enhancing PLP-Binding Capacity of Class-III ω-Transaminase by Single Residue Substitution” (Frontiers in Bioengineering and Biotechnology, 2019).

Legend:
[1] = target: PfTA (Pseudomonas fluorescens); assay: differential scanning fluorimetry (SYPRO Orange), T1/[…] vs PLP, 1-site fit; format: binding; settings: apo form, 1 mg/mL protein, PLP 1–250 μM, 50 mM phosphate pH 8; cofactor forms internal aldimine (covalent)
CvTA [2] = target: T1, CvTA (Chromobacterium violaceum, UniProt Q7NWG4); assay: as above; format: binding
T1 construct: gene CV_2025; IMAC-purified recombinant from E. coli BL21 (DE3) Star; dimer
T1 sequence (Q7NWG4 1-459): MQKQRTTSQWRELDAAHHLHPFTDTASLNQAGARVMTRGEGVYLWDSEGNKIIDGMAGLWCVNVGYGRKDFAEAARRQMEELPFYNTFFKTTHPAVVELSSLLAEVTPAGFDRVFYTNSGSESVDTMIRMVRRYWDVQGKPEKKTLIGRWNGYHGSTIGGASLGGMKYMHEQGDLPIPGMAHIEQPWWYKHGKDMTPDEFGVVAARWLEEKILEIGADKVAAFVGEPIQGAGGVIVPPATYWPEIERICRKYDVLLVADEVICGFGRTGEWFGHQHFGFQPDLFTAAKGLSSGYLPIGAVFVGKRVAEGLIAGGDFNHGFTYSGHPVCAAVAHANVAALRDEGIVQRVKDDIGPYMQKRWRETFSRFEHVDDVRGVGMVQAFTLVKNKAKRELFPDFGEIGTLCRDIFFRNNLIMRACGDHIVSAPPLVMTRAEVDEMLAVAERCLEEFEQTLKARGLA

HeTA [3] = target: T2, HeTA (Halomonas elongata, UniProt E1V913); assay: as above; format: binding
T2 construct: gene spuC; IMAC-purified recombinant from E. coli BL21 (DE3) Star; dimer
T2 sequence (E1V913 1-461): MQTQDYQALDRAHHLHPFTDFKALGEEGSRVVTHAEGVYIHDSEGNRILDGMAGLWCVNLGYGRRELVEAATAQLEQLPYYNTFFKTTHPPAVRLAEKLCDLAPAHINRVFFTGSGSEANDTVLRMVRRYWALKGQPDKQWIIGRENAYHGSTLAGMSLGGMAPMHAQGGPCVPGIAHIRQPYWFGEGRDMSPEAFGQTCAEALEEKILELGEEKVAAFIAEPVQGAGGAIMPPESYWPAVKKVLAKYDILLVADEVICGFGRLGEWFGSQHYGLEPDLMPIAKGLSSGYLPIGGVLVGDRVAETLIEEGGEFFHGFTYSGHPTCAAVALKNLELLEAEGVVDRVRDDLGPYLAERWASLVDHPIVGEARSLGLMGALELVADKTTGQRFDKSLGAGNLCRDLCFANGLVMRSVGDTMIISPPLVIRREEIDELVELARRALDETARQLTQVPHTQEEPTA

HeTA [4] = target: T3, HeTA (Halomonas elongata, UniProt E1V913, N120V); assay: as above; format: binding
T3 construct: gene spuC; IMAC-purified recombinant from E. coli BL21 (DE3) Star; dimer
T3 sequence (E1V913 entry or part of it N120V): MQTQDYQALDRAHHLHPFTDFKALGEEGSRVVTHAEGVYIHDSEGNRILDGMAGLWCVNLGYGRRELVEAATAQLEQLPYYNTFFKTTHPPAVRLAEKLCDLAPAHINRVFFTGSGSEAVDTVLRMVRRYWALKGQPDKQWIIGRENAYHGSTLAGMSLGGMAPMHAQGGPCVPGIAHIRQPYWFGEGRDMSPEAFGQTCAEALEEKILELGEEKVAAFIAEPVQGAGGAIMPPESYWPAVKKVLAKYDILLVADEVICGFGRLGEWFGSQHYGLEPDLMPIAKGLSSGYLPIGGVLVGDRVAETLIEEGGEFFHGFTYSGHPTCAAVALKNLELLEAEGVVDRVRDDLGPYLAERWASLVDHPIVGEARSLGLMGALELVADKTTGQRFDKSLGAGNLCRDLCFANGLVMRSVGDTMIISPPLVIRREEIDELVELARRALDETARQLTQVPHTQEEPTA

CvTA [5] = target: T4, CvTA (Chromobacterium violaceum, UniProt Q7NWG4, V124N); assay: biochemical
T4 construct: gene CV_2025

[6] = target: Pseudomonas fluorescens ω-transaminase (Pseudomonas fluorescens); assay: crystal structure; PfTA crystallised with PLP; sitting drop vapor diffusion at 20°C; 6 mg/mL protein in 50 mM HEPES pH 7.5, 300 mM NaCl, 0.1 mM PLP, 1% glycerol, 20 mM DTT mixed 1:1 with 0.1 M sodium citrate pH 5.6, 12% w/v PEG 6000, 0.1 M lithium sulfate; 2.2 Å; interfaces analysed with the PISA server

Row | Compound | Kd [1] | Kd (CvTA [2]) | Kd (HeTA [3]) | Kd (HeTA [4]) | Kd (CvTA [5]) | stoichiometry N [6]
1 | Cc1ncc(COP(=O)(O)O)c(C=O)c1O [PLP] | 14.8 ± 2.5 µM | 59 ± 15.8 µM | 12.4 ± 3.6 µM | 30.3 ± 4.1 µM | 16.4 ± 5.6 µM | 
2 | Pseudomonas fluorescens ω-transaminase (enzyme) |  |  |  |  |  | 4
